# Tests used:
# [1] = relative pharmacological activity of enantiomers (test not specified); details: enantiomers of the compound of Example 2
# DBA/2 mice = assay: audiogenic-induced seizures in DBA/2 mice; format: in vivo; details: Mus musculus, ip, 0.75 h, i.p. administration, read-out: ED50 in the audiogenic-induced seizure model
# Protocol: Further indicative of the anticonvulsant activity, compounds of the invention are effective in preventing audiogenic-induced seizures in DBA/2 mice (Chapman et al., Arzneim.-Forsch. 34:1261, 1984).
# The effect is determined as follows:
# Forty-five minutes following compound or vehicle administration, mice are placed individually in a soundproof chamber. After a 30 second accommodation period, the mice are exposed to a sound stimulation of 110 dB for 1 minute or until the appearance of a tonic-clonic seizure. Control seizures consist of an initial wild running phase. The prevention of wild running is indicative of an anticonvulsant effect.
# Test compounds in either distilled water solution or in a 3% (w/v) colloidal cornstarch suspension containing 5% (w/v) polyethyleneglycol 400 and 0.34% (w/v) Tween 80, are administered by oral intubation or intraperitoneally in a volume of 10 ml/kg of body weight.
# [2] = test system: NMDA-type excitatory amino acid receptors; assay: inhibition of NMDA-evoked 3H-acetylcholine release from rat striatal tissue slices; format: cell-based; details: stimulation with 50 uM NMDA, read-out: IC50 in the in vitro NMDA-evoked 3H-ACh release test
# Protocol: The inhibitory effect on the NMDA-type excitatory amino acid receptors is determined in vitro by measuring the inhibition of the NMDA-evoked ^3 H-acetylcholine (^3 H-ACh) release from corpus striatum tissue of rat brain, according to J. Lehmann and B. Scatton, Brain Research 252, 77-89 (1982) and Nature 297, 422-424 (1982).
# Antagonists of NMDA-type excitatory amino acid receptors competitively antagonize NMDA-evoked ^3 H-acetylcholine (^3 H-ACh) release from corpus striatum tissue of the brain.
# The inhibition of the NMDA-evoked ^3 H-acetylcholine (^3 H-ACh) release from rat striatal tissue slices by a compound of the invention is expressed as % of release of ^3 H-ACh in response to stimulation with 50 uM NMDA compared to control. Tests are two-tailed with a minimum of n=4 in each group. In IC50 values represent the concentration of test compound required to inhibit the NMDA-increased ^3 H-ACh release by 50%.
# [3] = Cook/Davidson conflict model for anxiolytic activity; format: in vivo; details: ip; read-out: dose active in the Cook/Davidson test for anxiolytic activity
# Text: Indicative of anxiolytic activity, compounds of the invention are effective in the Cook/Davidson conflict model (Psychopharmacologia 15, 159-168 (1969).
# mongolian gerbil = mongolian gerbil ischemia model; format: in vivo; details: 10 mg/Kg ip, administered either before or after the ischemia episode
# Text: The cerebral antiischemic activity, that is the effect of the compounds of the invention in preventing or reducing brain damage in mammals due to a transient cerebral ischemia (as in a stroke) can be determined in the mongolian gerbil ischemia model, e.g. the model described by T. Kirino, Brain Research 239, 57-69 (1982).
# The inhibitory effect on the observed hyperactivity and on the degeneration of neurons in the hippocampus region of the brain following a 5-minute period of ischemia is measured.
# The test compound is administered i.p. 15 minutes before the ischemia or 2, 4, and 6 hours post ischemia.
structure (smiles),measurement,setting,value
"O=C(O)[C@H]1C[C@@H](CP(=O)(O)O)CCN1 (single isomer, unassigned) [(+)-cis-4-phosphonomethyl-2-piperidinecarboxylic acid]",pharmacological activity relative to the other enantiomer,[1],less active enantiomer
O=C(O)[C@@H]1C[C@H](CP(=O)(O)O)CCN1 (relative stereo) [cis-4-phosphonomethyl-2-piperidinecarboxylic acid hyrdochloride],ED50,DBA/2 mice,~1.8 mg/kg
same,IC50,[2],~8 µM
"O=C(O)[C@H]1C[C@@H](CP(=O)(O)O)CCN1 (single isomer, unassigned) [(-)-cis-4-phosphonomethyl-2-piperidinecarboxylic acid]",pharmacological activity relative to the other enantiomer,[1],more active enantiomer
O=C(O)[C@H]1C[C@@H](CP(=O)(O)O)CCN1 (relative stereo) [cis-4-phosphonomethyl-2-piperidine-carboxylic acid],minimal effective dose,[3],~2 mg/kg
same,effect on degeneration of cerebral neurons in the hippocampus region of the brain,mongolian gerbil,reduces the degeneration of cerebral neurons
same,effect on ischemia-induced hyperactivity of the gerbil,mongolian gerbil,inhibits the ischemia-induced hyperactivity

# — US4906621A, “Certain 2-carboxypiperidyl-alkylene phosphonic acids and esters thereof useful for the treatment of disorders responsive to N-methyl-D-aspartate receptor blockade” (Ciba-Geigy Corporation, priority 1987, dated 1990)
